In patent publication US20070099907A1 (priority 2002, published 2007):
Entries after “also recorded” stand apart in the source; their conditions may differ.

Legend:
patients who had an ACS = conditions: cited from earlier work
[1] = test system: postischemic cardiac dysfunction; conditions: cited from earlier work
[2] = test system: patients with acute coronary syndromes without ST-segment elevation; experiment: Open, randomized, single-blind pilot study of meloxicam added to aspirin and heparin: cardiovascular events; assay type: in vivo, human
Procedure: (§1) Patients were recruited from the Centro de Salud and the Centro Modelo de Cardiologia, Tucuman, Argentina. Inclusion criteria were chest pain within the previous 24 hours associated with ST-segment depression (>0.5 mm) and either ECG evidence of ischemia or previously documented coronary artery disease. Exclusion criteria were persistent ST-segment elevation and increased levels of the MB isoenzyme of creatine kinase (CK-MB) consistent with acute myocardial infarction, revascularization procedures within the preceding 6 months, malignancy, pregnancy, renal or hepatic diseases, use of anticoagulant therapy, treatment with anti-inflammatory drugs, or contraindication of the study drugs. […] Both groups received aspirin for 30 days. The dose range was 100 to 300 mg per day at the discretion of the treating physician. CK-MB levels were measured before randomization. Additional assays were performed after an episode of chest pain to confirm the diagnosis of acute MI. All patients received subcutaneous LMWH (either nadroparin 87 IU/kg BID or enoxaparin 1 mg/kg BID) or intravenous UFH given as an initial bolus of 5000 IU followed by continuous infusion at 1000 IU per hour for 7 days or until discharge from the hospital. The activated partial-thromboplastin time (APTT) was used to assess the degree of anticoagulation in patients receiving intravenous unfractionated heparin. Patients were tested every 12 hours on the first day and every 24 hours subsequently. The APTT was maintained in the range 45 to 87 seconds (normal value, 30±5 seconds).
[…] An additional secondary composite variable was determined: MI, death, and all revascularization procedures (percutaneous transluminal coronary angioplasty [PTCA] or coronary artery graft surgery [CABG]). Each component of the primary and secondary outcome variable was also recorded separately. […] Cardiac catheterization was performed at the discretion of treating physicians, but only urgent PTCA and CABG, usually after recurrent angina or MI, were considered as end points. Revascularization procedures were indicated after recurrence of chest pain refractory to medical treatment. During CCU stay and after discharge, all patients were examined for clinical events by an investigator who was unaware of treatment allocation. Patients were also instructed to report any events to study personnel immediately. The diagnostic criteria for MI were chest pain lasting 20 minutes or more with ECG changes and an at least 2-fold elevation of CK-MB. Recurrent angina was defined as recurrence of chest pain with ECG changes refractory to medical therapy (aspirin, heparin, nitroglycerin, and β-blockers).
Relative risks (RRs) and their 95% CI were obtained. The RR reduction (RRR) is defined as 1 minus RR and expressed as percentage. The absolute risk reduction (ARR) was calculated as the difference between the risk in control patients minus the risk in treated patients and expressed as percentage. A multiple logistic regression model was used to determine the predictive value of the variables associated with events at day 90 in the previous univariate analysis. The software used were CSS/Statistics 3.1 (StatSoft Corp) and EPI INFO 6 v.6.04, 1996.

[3] = test system: activated partial-thromboplastin time (APTT); experiment: Activated partial thromboplastin time after unfractionated heparin in the pilot study; assay type: in vivo, human; conditions: for Activated Partial Thromboplastin Time, Mean ± SD: patients treated with unfractionated heparin; for Activated Partial Thromboplastin Time, Median: unfractionated heparin
Procedure: as §1
The nature of the quantitative variables distribution was assessed by the Shapiro-Wilk test. Differences between the 2 treatment groups were analyzed by the Student's t test (independent samples) or the Mann-Whitney test, according to the nature of the distribution. Differences in terms of activated partial thromboplastin time after unfractionated heparin were assessed by a 2-way ANOVA model, with repeated measures in one of the factors (Student Newman-Keuls post-hoc test). Univariate associations between qualitative variables were assessed by X^2 (Yates corrected) and Spearman rank-order correlations.

[4] = test system: patients with acute coronary syndromes without ST-segment elevation; experiment: Safety observations in the pilot study; assay type: in vivo, human; conditions: throughout the course of the study; meloxicam 15 mg/day + aspirin + heparin
Procedure: as §1, with “An open, randomized, prospective, single-blind pilot study of the use of meloxicam in ACS patients without ST-segment elevation was performed. Patients” for “Patients”, “The activated partial-thromboplastin time (APTT) was used to assess the degree of anticoagulation in patients receiving intravenous unfractionated heparin. Patients were tested every 12 hours on the first day and every 24 hours subsequently. The APTT was maintained in the range 45 to 87 seconds (normal value, 30±5 seconds).” left out

[5] = after bolus intravenous dose of 15 mg meloxicam; cited from earlier work
arthritic patients = conditions: compared to patients treated with naproxen; cited from earlier work
[6] = test system: endothelial COX-2 expression; conditions: cited from earlier work
[7] = 90-day follow-up, cumulative, n=60 per group
[8] = 90-day follow-up, meloxicam group vs control
[9] = 90-day follow-up, meloxicam group vs control, listed as meloxicam
[10] = CCU period, meloxicam group vs control
[11] = CCU period, meloxicam group vs control, listed as meloxicam
[12] = CCU period, n=60 per group, listed as meloxicam

CC(=O)Oc1ccccc1C(=O)O [ASA, acetylsalicylic acid]
reduction of combined incidence of cardiovascular death, MI and stroke (patients who had an ACS): 25% | aggravation of postischemic cardiac dysfunction [1]: aggravates postischemic cardiac dysfunction

Cc1cnc(NC(=O)C2=C(O)c3ccccc3S(=O)(=O)N2C)s1 [Meloxicam, 4-hydroxy-2-methyl-N-(5-methyl-2-thiazolyl)-2H-1,2-benzothiazine-3-carboxamide-1,1-dioxide]
MI + death + revascularization, % (secondary composite) [2, 7]: 13.3% | MI + death + revascularization, n (secondary composite) [2, 7]: 8 n | Recurrent angina + MI + vascular death, % (primary composite) [2, 7]: 21.7% | Recurrent angina + MI + vascular death, n (primary composite) [2, 7]: 13 n | Recurrent angina, % [2, 7]: 20.0% | Recurrent angina, % ([2]; 90-day follow-up, cumulative, n=60 per group, listed as meloxicam): 20% | ARR %, MI + death + revascularization [2, 8]: 20.0% | ARR %, recurrent angina [2, 8]: 23.3% | ARR %, revascularization [2, 8]: 18.3% | RRR (95% CI), recurrent angina [2, 8]: 53.8 (17-74) % | RRR (95% CI), recurrent angina + MI + vascular death [2, 8]: 55.1 (22-74) % | RRR (95% CI), revascularization [2, 8]: 61.0 (14-82) % | RRR (95% CI), MI + death + revascularization [2, 9]: 60.1% | RRR (95% CI), recurrent angina [2, 9]: 53.8% | RRR (95% CI), recurrent angina + MI + vascular death [2, 9]: 55.1% | RRR (95% CI), revascularization [2, 9]: 61% | Revascularization, % ([2]; 90-day follow-up, n=60 per group): 11.7% | Recurrent angina, % ([2]; CCU period, meloxicam + aspirin + heparin vs control aspirin + heparin, n=60 per group): 15.0% | ARR %, MI + death + revascularization [2, 10]: 16.7% | ARR %, all revascularization [2, 10]: 15.0% | ARR %, recurrent angina [2, 10]: 20.0% | ARR %, recurrent angina + MI + vascular death [2, 10]: 23.3% | RRR (95% CI), MI + death + revascularization [2, 10]: 62.5 (11-84) % | RRR (95% CI), all revascularization [2, 10]: 60.1% | RRR (95% CI), recurrent angina [2, 10]: 57.1 (14-79) % | RRR (95% CI), recurrent angina + MI + vascular death [2, 10]: 60.8 (23-80) % | ARR %, all revascularization [2, 11]: 15% | ARR %, recurrent angina [2, 11]: 20% | RRR (95% CI), MI + death + revascularization [2, 11]: 62.5% | RRR (95% CI), all revascularization [2, 11]: 60.8% | RRR (95% CI), recurrent angina [2, 11]: 57.1% | RRR (95% CI), recurrent angina + MI + vascular death [2, 11]: 60.8% | All revascularization, % ([2]; CCU period, n=60 per group): 10.0% | MI + death + revascularization, % (secondary composite) ([2]; CCU period, n=60 per group): 10.0% | MI + death + revascularization, n (secondary composite) ([2]; CCU period, n=60 per group): 6 n | Recurrent angina + MI + vascular death, % (primary composite) ([2]; CCU period, n=60 per group): 15.0% | Recurrent angina + MI + vascular death, n (primary composite) ([2]; CCU period, n=60 per group): 9 n | MI + death + revascularization, % (secondary composite) [2, 12]: 10% | Recurrent angina + MI + vascular death, % (primary composite) [2, 12]: 15% | patients reaching the additional secondary outcome variable (MI, death, revascularization) ([2]; at 30 days): 11.7% | patients reaching the primary outcome variable (recurrent angina, MI, or death) ([2]; at 30 days): 20.0% | improvement of the ARR in recurrent angina ([2]; during the 30-day treatment period): 3.3% | decrease of the triple end points (recurrent angina, MI and vascular death or MI, death and coronary revascularization procedures) ([2]; meloxicam with aspirin and heparin, ACS without ST-segment elevation): 60% | patients reaching the primary outcome variable (recurrent angina, MI, or death) ([2]; within 48 hours of randomization): 1.7% | Activated Partial Thromboplastin Time, Mean ± SD ([3]; Day 1): 55.8 ± 26.4 s | Activated Partial Thromboplastin Time, Median ([3]; Day 1): 48 s | Activated Partial Thromboplastin Time, Mean ± SD ([3]; Day 2): 69.6 ± 19.9 s | Activated Partial Thromboplastin Time, Median ([3]; Day 2): 62 s | Activated Partial Thromboplastin Time, Mean ± SD ([3]; Day 3): 89.9 ± 24.4 s | Activated Partial Thromboplastin Time, Median ([3]; Day 3): 86 s | Activated Partial Thromboplastin Time, Mean ± SD ([3]; Day 4, control vs meloxicam P < 0.05): 89.3 ± 20.8 s | Activated Partial Thromboplastin Time, Median ([3]; Day 4): 84.5 s | adverse complications (bleeding complications, side effects, intolerance) [4]: No adverse complications; also recorded: No bleeding complications, side effects, or intolerance | Cmax [5]: 3000 ng/mL | tmax [5]: 3 min

CS(=O)(=O)c1ccc(C2=C(c3ccccc3)C(=O)OC2)cc1 [rofecoxib]
risk of heart attack (arthritic patients): five-fold higher risk of heart attack

CC(=O)Oc1cc(C(F)(F)F)ccc1C(=O)O [triflusal]
inhibitory activity against endothelial COX-2 expression [6]: very little inhibitory activity
